Here are results for 16 molecules from patent US20260241012A1, “1,8-NAPHTHYRIDIN-2-ONE HETEROBIFUNCTIONAL BCL6 DEGRADERS” (Treeline Biosciences, Inc., priority 2022, published 2026).

For this experiment, the target named is T1, N-terminal HiBiT tagged BCL6 (Homo sapiens, UniProt P41182).
T1 construct: expressed in transfected cells; host or cells: HT1080 (ATCC CCL-121), stably transduced with lentivirus pLV-UBC-N-HiBiT-BCL6-PGK-puro
Nature of the experiment: HiBiT based degradation assay. The experiment is classed as cell-based. Conditions: HT1080 cells expressing N-terminal HiBiT tagged BCL6, 5 hours of incubation; for Ymin (5 hr): BCL6 degradation normalized with DMSO control; for DC50: four-parameter logistic model, read-out: EC50 (5 hr). A digest of the protocol: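 Degradation measured by luminescence from the Nano-Glo HiBiT lytic reagent (15 min, room temperature), normalized to DMSO controls and fitted to a four-parameter curve.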
For orientation: With HiBiT, luminescence reflects the tagged protein that the partner subunit can reach.

Consider `CNC(=O)COc1cc2cc(Nc3nc(N4CC[C@H](CNc5ccc6c(C7CCC(=O)NC7=O)nn(C)c6c5)C4)ncc3Cl)cnc2n(C)c1=O` (stereo partly drawn) [Compound 123a, 2-((6-((5-chloro-2-((3R)-3-(((3-(2,6-dioxopiperidin-3-yl)-1-methyl-1H-indazol-6-yl)amino)methyl)pyrrolidin-1-yl)pyrimidin-4-yl)amino)-1-methyl-2-oxo-1,2-dihydro-1,8-naphthyridin-3-yl)oxy)-N-methylacetamide], for which the “Ymin (5 hr)” value is “++ (50% ≤ Ymin < 70%)” and the DC50 was less than 10 nM.

`CNC(=O)COc1cc2cc(Nc3nc(N4CC[C@@H](CNc5ccc6c(C7CCC(=O)NC7=O)nn(C)c6c5)C4)ncc3Cl)cnc2n(C)c1=O` (stereo partly drawn) [Compound 123b, 2-((6-((5-chloro-2-((3S)-3-(((3-(2,6-dioxopiperidin-3-yl)-1-methyl-1H-indazol-6-yl)amino)methyl)pyrrolidin-1-yl)pyrimidin-4-yl)amino)-1-methyl-2-oxo-1,2-dihydro-1,8-naphthyridin-3-yl)oxy)-N-methylacetamide]: the “Ymin (5 hr)” value was “++++ (Ymin < 30%)” and the DC50 was less than 10 nM.

Regarding `CNC(=O)COc1cc2cc(Nc3nc(N4CCC(CN5CCN(c6cccc7c(C8CCC(=O)NC8=O)nn(C)c67)CC5)CC4)ncc3Cl)cnc2n(C)c1=O` (centres unmarked) [Compound 132, 2-((6-((5-chloro-2-(4-((4-(3-(2,6-dioxopiperidin-3-yl)-1-methyl-1H-indazol-7-yl)piperazin-1-yl)methyl)piperidin-1-yl)pyrimidin-4-yl)amino)-1-methyl-2-oxo-1,2-dihydro-1,8-naphthyridin-3-yl)oxy)-N-methylacetamide], the “Ymin (5 hr)” value is recorded as “++++ (Ymin < 30%)” and the DC50 is less than 10 nM.

As for `CNC(=O)COc1cc2cc(Nc3nc(N4CCC(CN5CCN(c6ccc7c(C8CCC(=O)NC8=O)nn(C)c7c6)CC5)CC4)ncc3Cl)cnc2n(C)c1=O` (centres unmarked) [Compound 133, 2-((6-((5-chloro-2-(4-((4-(3-(2,6-dioxopiperidin-3-yl)-1-methyl-1H-indazol-6-yl)piperazin-1-yl)methyl)piperidin-1-yl)pyrimidin-4-yl)amino)-1-methyl-2-oxo-1,2-dihydro-1,8-naphthyridin-3-yl)oxy)-N-methylacetamide], the “Ymin (5 hr)” value is “++++ (Ymin < 30%)” and the DC50 was less than 10 nM.

In the case of `CNC(=O)COc1cc2cc(Nc3nc(N4CCN(CC5CCN(c6ccc7c(C8CCC(=O)NC8=O)nn(C)c7c6)CC5)CC4)ncc3F)cnc2n(C)c1=O` (centres unmarked) [Compound 134, 2-((6-((2-(4-((1-(3-(2,6-dioxopiperidin-3-yl)-1-methyl-1H-indazol-6-yl)piperidin-4-yl)methyl)piperazin-1-yl)-5-fluoropyrimidin-4-yl)amino)-1-methyl-2-oxo-1,2-dihydro-1,8-naphthyridin-3-yl)oxy)-N-methylacetamide], the “Ymin (5 hr)” value was “+++ (30% ≤ Ymin < 50%)” and the DC50 was less than 10 nM.

In the case of `CNC(=O)COc1cc2cc(Nc3nc(N4CCN(CC5CCN(c6cccc7c(C8CCC(=O)NC8=O)nn(C)c67)CC5)CC4)ncc3F)cnc2n(C)c1=O` (centres unmarked) [Compound 135, 2-((6-((2-(4-((1-(3-(2,6-dioxopiperidin-3-yl)-1-methyl-1H-indazol-7-yl)piperidin-4-yl)methyl)piperazin-1-yl)-5-fluoropyrimidin-4-yl)amino)-1-methyl-2-oxo-1,2-dihydro-1,8-naphthyridin-3-yl)oxy)-N-methylacetamide], the “Ymin (5 hr)” value is “++++ (Ymin < 30%)” and the DC50 was less than 10 nM.

Take `CNC(=O)COc1cc2cc(Nc3nc(N4C[C@@H]5[C@@H](CN6CCN(c7cccc8c(C9CCC(=O)NC9=O)nn(C)c78)CC6)[C@@H]5C4)ncc3Cl)cnc2n(C)c1=O` (stereo partly drawn) [Compound 136a, 2-((6-((5-chloro-2-((1R,5S,6s)-6-((4-(3-(2,6-dioxopiperidin-3-yl)-1-methyl-1H-indazol-7-yl)piperazin-1-yl)methyl)-3-azabicyclo[3.1.0]hexan-3-yl)pyrimidin-4-yl)amino)-1-methyl-2-oxo-1,2-dihydro-1,8-naphthyridin-3-yl)oxy)-N-methylacetamide]: the “Ymin (5 hr)” value was “++++ (Ymin < 30%)” and the DC50 is less than 10 nM.

For the molecule `CNC(=O)COc1cc2cc(Nc3nc(N4CC5(CCC(Nc6cccc7c(C8CCC(=O)NC8=O)nn(C)c67)CC5)C4)ncc3Cl)cnc2n(C)c1=O` (centres unmarked) [Compound 137, 2-((6-((5-chloro-2-(7-((3-(2,6-dioxopiperidin-3-yl)-1-methyl-1H-indazol-7-yl)amino)-2-azaspiro[3.5]nonan-2-yl)pyrimidin-4-yl)amino)-1-methyl-2-oxo-1,2-dihydro-1,8-naphthyridin-3-yl)oxy)-N-methylacetamide], the “Ymin (5 hr)” value was “++++ (Ymin < 30%)” and the DC50 was less than 10 nM.

Take `CNC(=O)COc1cc2cc(Nc3nc(N4CC5(CCC(Nc6ccc7c(C8CCC(=O)NC8=O)nn(C)c7c6)CC5)C4)ncc3Cl)cnc2n(C)c1=O` (centres unmarked) [Compound 138, 2-((6-((5-chloro-2-(7-((3-(2,6-dioxopiperidin-3-yl)-1-methyl-1H-indazol-6-yl)amino)-2-azaspiro[3.5]nonan-2-yl)pyrimidin-4-yl)amino)-1-methyl-2-oxo-1,2-dihydro-1,8-naphthyridin-3-yl)oxy)-N-methylacetamide]: the “Ymin (5 hr)” value is on record as “++++ (Ymin < 30%)” and the DC50 is less than 10 nM.

As to `CNC(=O)COc1cc2cc(Nc3nc(N4CCC(CC5CCN(c6cccc7c(C8CCC(=O)NC8=O)nn(C)c67)CC5)CC4)ncc3Cl)cnc2n(C)c1=O` (centres unmarked) [Compound 139, 2-((6-((5-chloro-2-(4-((1-(3-(2,6-dioxopiperidin-3-yl)-1-methyl-1H-indazol-7-yl)piperidin-4-yl)methyl)piperidin-1-yl)pyrimidin-4-yl)amino)-1-methyl-2-oxo-1,2-dihydro-1,8-naphthyridin-3-yl)oxy)-N-methylacetamide], the “Ymin (5 hr)” value is “+++ (30% ≤ Ymin < 50%)” and the DC50 lay in the range of 100 to 1000 nM.

Regarding `CNC(=O)COc1cc2cc(Nc3nc(N4CCC(CC5CCN(c6ccc7c(C8CCC(=O)NC8=O)nn(C)c7c6)CC5)CC4)ncc3Cl)cnc2n(C)c1=O` (centres unmarked) [Compound 140, 2-((6-((5-chloro-2-(4-((1-(3-(2,6-dioxopiperidin-3-yl)-1-methyl-1H-indazol-6-yl)piperidin-4-yl)methyl)piperidin-1-yl)pyrimidin-4-yl)amino)-1-methyl-2-oxo-1,2-dihydro-1,8-naphthyridin-3-yl)oxy)-N-methylacetamide], the “Ymin (5 hr)” value was “+++ (30% ≤ Ymin < 50%)” and the DC50 is less than 10 nM.

Take `CNC(=O)COc1cc2cc(Nc3nc(N4CCN(CC5CCN(c6cccc7c(C8CCC(=O)NC8=O)nn(C)c67)CC5)[C@@H](C(F)(F)F)C4)ncc3Cl)cnc2n(C)c1=O` (stereo partly drawn) [Compound 141a, 2-((6-((5-chloro-2-((3R)-4-((1-(3-(2,6-dioxopiperidin-3-yl)-1-methyl-1H-indazol-7-yl)piperidin-4-yl)methyl)-3-(trifluoromethyl)piperazin-1-yl)pyrimidin-4-yl)amino)-1-methyl-2-oxo-1,2-dihydro-1,8-naphthyridin-3-yl)oxy)-N-methylacetamide]: the “Ymin (5 hr)” value is recorded as “+++ (30% ≤ Ymin < 50%)” and the DC50 fell in the range of 10 to 100 nM.

As to `CNC(=O)COc1cc2cc(Nc3nc(N4CC5(CCC(Oc6cccc7c(C8CCC(=O)NC8=O)nn(C)c67)CC5)C4)ncc3Cl)cnc2n(C)c1=O` (centres unmarked) [Compound 142, 2-((6-((5-chloro-2-(7-((3-(2,6-dioxopiperidin-3-yl)-1-methyl-1H-indazol-7-yl)oxy)-2-azaspiro[3.5]nonan-2-yl)pyrimidin-4-yl)amino)-1-methyl-2-oxo-1,2-dihydro-1,8-naphthyridin-3-yl)oxy)-N-methylacetamide], the “Ymin (5 hr)” value is reported as “+++ (30% ≤ Ymin < 50%)” and the DC50 was less than 10 nM.

As to `CNC(=O)COc1cc2cc(Nc3nc(N4CCC(CN5C6CCC5CC(c5cccc7c(C8CCC(=O)NC8=O)nn(C)c57)C6)CC4)ncc3Cl)cnc2n(C)c1=O` [Compound 143, 2-((6-((5-chloro-2-(4-(((1R,3s,5S)-3-(3-(2,6-dioxopiperidin-3-yl)-1-methyl-1H-indazol-7-yl)-8-azabicyclo[3.2.1]octan-8-yl)methyl)piperidin-1-yl)pyrimidin-4-yl)amino)-1-methyl-2-oxo-1,2-dihydro-1,8-naphthyridin-3-yl)oxy)-N-methylacetamide], the “Ymin (5 hr)” value was “++++ (Ymin < 30%)” and the DC50 is less than 10 nM.

Take `CNC(=O)COc1cc2cc(Nc3nc(N4CC5(CCC(Oc6ccc7c(C8CCC(=O)NC8=O)nn(C)c7c6)CC5)C4)ncc3Cl)cnc2n(C)c1=O` (centres unmarked) [Compound 144, 2-((6-((5-chloro-2-(7-((3-(2,6-dioxopiperidin-3-yl)-1-methyl-1H-indazol-6-yl)oxy)-2-azaspiro[3.5]nonan-2-yl)pyrimidin-4-yl)amino)-1-methyl-2-oxo-1,2-dihydro-1,8-naphthyridin-3-yl)oxy)-N-methylacetamide]: the “Ymin (5 hr)” value is reported as “++++ (Ymin < 30%)” and the DC50 was less than 10 nM.

On to `CCn1c(=O)c(OCC(=O)NC)cc2cc(Nc3nc(N4CCN(CC5CCN(c6cccc7c(C8CCC(=O)NC8=O)nn(C)c67)CC5)CC4)ncc3Cl)cnc21` (centres unmarked) [Compound 145, 2-((6-((5-chloro-2-(4-((1-(3-(2,6-dioxopiperidin-3-yl)-1-methyl-1H-indazol-7-yl)piperidin-4-yl)methyl)piperazin-1-yl)pyrimidin-4-yl)amino)-1-ethyl-2-oxo-1,2-dihydro-1,8-naphthyridin-3-yl)oxy)-N-methylacetamide], for which the “Ymin (5 hr)” value is on record as “++++ (Ymin < 30%)” and the DC50 was less than 10 nM.
